Patent US20250311727A1, “SUBSTITUTED 2-AMINOAZINES AND SALTS THEREOF, AND USE THEREOF AS HERBICIDAL ACTIVE SUBSTANCES” (BAYER AKTIENGESELLSCHAFT, priority 2022, published 2025)

How the values were obtained:
Type in all cases: in vivo
Abutilon theophrasti [1] = test: Post-emergence herbicidal efficacy at 320 g/ha, ABUTH; conditions: rated visually after about 3 weeks vs untreated controls, 100% = plants have died
Summary of the method: (§1)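 Weeds grown from seed in sandy loam in the greenhouse were sprayed at the one-leaf stage, 2 to 3 weeks after sowing. WP or EC formulations were applied as aqueous spray with 0.5% additive at 600 L/ha. Injury was scored visually about 3 weeks later against untreated controls (0% = like control, 100% = dead).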

Alopecurus myosuroides [2] = test: Post-emergence herbicidal efficacy at 320 g/ha, ALOMY; conditions: rated visually after about 3 weeks vs untreated controls, 100% = plants have died
Description: (§2) Unwanted plants/weeds: • ABUTH: Abutilon theophrasti • ALOMY: Alopecurus myosuroides • AMARE: Amaranthus retroflexus • DIGSA: Digitaria sanguinalis • ECHCG: Echinochloa crus-galli • KCHSC: Kochia scoparia • LOLRI: Lolium rigidum • MATIN: Matricaria inodora • POAAN: Poa annua • POLCO: Polygonum convolvulus • SETVI: Setaria viridis • STEME: Stellaria media • VERPE: Veronica persica • VIOTR: Viola tricolor A. Post-Emergence Herbicidal Efficacy at 320 g/ha
Seeds of mono- and dicotyledonous weed plants were placed in plastic pots in sandy loam soil (doubly sown with in each case one species of mono- or dicotyledonous weed plants per pot), covered with soil and cultivated in a greenhouse under controlled growth conditions. 2 to 3 weeks after sowing, the test plants were treated at the one-leaf stage. The compounds of the invention, formulated in the form of wettable powders (WP) or as emulsion concentrates (EC), were applied to the green parts of the plants as aqueous suspension or emulsion with addition of 0.5% additive at a water application rate equivalent to 600 litres per hectare. After the test plants had been kept in the greenhouse under optimum growth conditions for about 3 weeks, the activity of the preparations was rated visually in comparison to untreated controls.
For example, 100% activity=the plants have died, 0% activity=like control plants.
Tables A1 to A10 below show the effects of selected compounds of the general formula (I) according to Table 1 on various harmful plants and at an application rate corresponding to 320 g/ha, which were obtained by the trial procedure specified above.

Amaranthus retroflexus [3] = test: Post-emergence herbicidal efficacy at 320 g/ha, AMARE; conditions: rated visually after about 3 weeks vs untreated controls, 100% = plants have died
Summary of the method: as §1

Digitaria sanguinalis [4] = test: Post-emergence herbicidal efficacy at 320 g/ha, DIGSA; conditions: rated visually after about 3 weeks vs untreated controls, 100% = plants have died
Summary of the method: as §1

Kochia scoparia [5] = test: Post-emergence herbicidal efficacy at 320 g/ha, KCHSC; conditions: rated visually after about 3 weeks vs untreated controls, 100% = plants have died
Summary of the method: as §1

Poa annua [6] = test: Post-emergence herbicidal efficacy at 320 g/ha, POAAN; conditions: rated visually after about 3 weeks vs untreated controls, 100% = plants have died
Summary of the method: as §1

Stellaria media [7] = test: Post-emergence herbicidal efficacy at 320 g/ha, STEME; conditions: rated visually after about 3 weeks vs untreated controls, 100% = plants have died
Summary of the method: as §1

Veronica persica [8] = test: Post-emergence herbicidal efficacy at 320 g/ha, VERPE; conditions: rated visually after about 3 weeks vs untreated controls, 100% = plants have died
Summary of the method: as §1

Abutilon theophrasti [9] = test: Post-emergence herbicidal efficacy at 80 g/ha, ABUTH; conditions: rated visually after about 3 weeks vs untreated controls, 100% = plants have died
Description: as §2
(§3) Seeds of monocotyledonous and dicotyledonous weeds and crop plants were placed in sandy loam in plastic or organic planting pots, covered with soil and cultivated in a greenhouse under controlled growth conditions. 2 to 3 weeks after sowing, the test plants were treated at the one-leaf stage. The compounds of the invention, formulated in the form of wettable powders (WP) or as emulsion concentrates (EC), were then sprayed onto the green parts of the plants as aqueous suspension or emulsion with addition of 0.5% additive at a water application rate of 600 l/ha (converted). After the test plants had been kept in the greenhouse under optimum growth conditions for about 3 weeks, the activity of the preparations was rated visually in comparison to untreated controls. For example, 100% activity=the plants have died, 0% activity=like control plants.
(§4) Tables B1 to B11 below show the effects of selected compounds of the general formula (I) according to Table 1 on various harmful plants and an application rate corresponding to 80 g/ha, which were obtained by the experimental procedure mentioned above.

Alopecurus myosuroides [10] = test: Post-emergence herbicidal efficacy at 80 g/ha, ALOMY; conditions: rated visually after about 3 weeks vs untreated controls, 100% = plants have died
Description: as §2, §3, §4

Amaranthus retroflexus [11] = test: Post-emergence herbicidal efficacy at 80 g/ha, AMARE; conditions: rated visually after about 3 weeks vs untreated controls, 100% = plants have died
Summary of the method: (§5)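 Foliar application at the one-leaf stage used wettable powder or emulsion concentrate formulations diluted in water with 0.5% additive (600 l/ha). Percent activity was estimated by eye after roughly 3 weeks in the greenhouse, relative to untreated controls.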

PHBPU = test: Post-emergence herbicidal efficacy at 80 g/ha, PHBPU; conditions: rated visually after about 3 weeks vs untreated controls, 100% = plants have died
Experimental: as §3, with “plants. Tables B1 to B11 below show the effects of selected compounds of the general formula (I) according to Table 1 on various harmful plants and an application rate corresponding to 80 g/ha, which were obtained by the experimental procedure mentioned above.” for “plants.”

Polygonum convolvulus [12] = test: Post-emergence herbicidal efficacy at 80 g/ha, POLCO; conditions: rated visually after about 3 weeks vs untreated controls, 100% = plants have died
Description: as §2
as §3, with “plants. […]” for “plants.”

Veronica persica [13] = test: Post-emergence herbicidal efficacy at 80 g/ha, VERPE; conditions: rated visually after about 3 weeks vs untreated controls, 100% = plants have died
Summary of the method: as §5

Abutilon theophrasti [14] = test: Pre-emergence herbicide efficacy at 320 g/ha, ABUTH; conditions: scored visually after about 3 weeks vs untreated controls, 100% = plants have died
Summary of the method: (§6)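 Pre-emergence soil-surface spray of WP or EC formulation in water at 600 L/ha with 0.5% additive, over seeds covered in sandy loam. Scoring visual, ~3 weeks, % of untreated.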

Amaranthus retroflexus [15] = test: Pre-emergence herbicide efficacy at 320 g/ha, AMARE; conditions: scored visually after about 3 weeks vs untreated controls, 100% = plants have died
Summary of the method: as §6

Digitaria sanguinalis [16] = test: Pre-emergence herbicide efficacy at 320 g/ha, DIGSA; conditions: scored visually after about 3 weeks vs untreated controls, 100% = plants have died
Summary of the method: as §6

Kochia scoparia [17] = test: Pre-emergence herbicide efficacy at 320 g/ha, KCHSC; conditions: scored visually after about 3 weeks vs untreated controls, 100% = plants have died
Summary of the method: as §6

Poa annua [18] = test: Pre-emergence herbicide efficacy at 320 g/ha, POAAN; conditions: scored visually after about 3 weeks vs untreated controls, 100% = plants have died
Summary of the method: as §6

Setaria viridis [19] = test: Pre-emergence herbicide efficacy at 320 g/ha, SETVI; conditions: scored visually after about 3 weeks vs untreated controls, 100% = plants have died
Summary of the method: as §6

Stellaria media [20] = test: Pre-emergence herbicide efficacy at 320 g/ha, STEME; conditions: scored visually after about 3 weeks vs untreated controls, 100% = plants have died
Summary of the method: as §6

Veronica persica [21] = test: Pre-emergence herbicide efficacy at 320 g/ha, VERPE; conditions: scored visually after about 3 weeks vs untreated controls, 100% = plants have died
Summary of the method: as §6

Amaranthus retroflexus [22] = test: Pre-emergence herbicide efficacy at 80 g/ha, AMARE; conditions: scored visually after about 3 weeks vs untreated controls, 100% = plants have died
Summary of the method: (§7)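 Percent herbicidal activity is a visual rating relative to untreated pots, taken roughly 3 weeks after compounds went onto the covering soil of sown seeds as an aqueous WP or EC preparation with 0.5% additive.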

Polygonum convolvulus [23] = test: Pre-emergence herbicide efficacy at 80 g/ha, POLCO; conditions: scored visually after about 3 weeks vs untreated controls, 100% = plants have died
Summary of the method: as §7

Setaria viridis [24] = test: Pre-emergence herbicide efficacy at 80 g/ha, SETVI
Summary of the method: as §7

Veronica persica [25] = test: Pre-emergence herbicide efficacy at 80 g/ha, VERPE
Summary of the method: as §7

Viola tricolor = test: Pre-emergence herbicide efficacy at 80 g/ha, VIOTR
Summary of the method: as §7

FC(F)c1cc(-c2ccccc2Nc2ncc(Cl)cn2)on1 [Example 1-31]
Post-emergence efficacy at 320 g/ha against ABUTH in % (Abutilon theophrasti [1]): 100% | Post-emergence efficacy at 320 g/ha against ALOMY in % (Alopecurus myosuroides [2]): 100% | Post-emergence efficacy at 320 g/ha against AMARE in % (Amaranthus retroflexus [3]): 100% | Post-emergence efficacy at 320 g/ha against DIGSA in % (Digitaria sanguinalis [4]): 100% | Post-emergence efficacy at 320 g/ha against KCHSC in % (Kochia scoparia [5]): 100% | Post-emergence efficacy at 320 g/ha against POAAN in % (Poa annua [6]): 100% | Post-emergence efficacy at 320 g/ha against STEME in % (Stellaria media [7]): 100% | Post-emergence efficacy at 320 g/ha against VERPE in % (Veronica persica [8]): 100% | Post-emergence efficacy at 80 g/ha against ABUTH in % (Abutilon theophrasti [9]): 80% | Post-emergence efficacy at 80 g/ha against ALOMY in % (Alopecurus myosuroides [10]): 80% | Post-emergence efficacy at 80 g/ha against AMARE in % (Amaranthus retroflexus [11]): 90% | Post-emergence efficacy at 80 g/ha against PHBPU in % (PHBPU): 80% | Post-emergence efficacy at 80 g/ha against POLCO in % (Polygonum convolvulus [12]): 100% | Post-emergence efficacy at 80 g/ha against VERPE in % (Veronica persica [13]): 90% | Pre-emergence efficacy at 320 g/ha against ABUTH in % (Abutilon theophrasti [14]): 90% | Pre-emergence efficacy at 320 g/ha against AMARE in % (Amaranthus retroflexus [15]): 100% | Pre-emergence efficacy at 320 g/ha against DIGSA in % (Digitaria sanguinalis [16]): 100% | Pre-emergence efficacy at 320 g/ha against KCHSC in % (Kochia scoparia [17]): 90% | Pre-emergence efficacy at 320 g/ha against POAAN in % (Poa annua [18]): 100% | Pre-emergence efficacy at 320 g/ha against SETVI in % (Setaria viridis [19]): 100% | Pre-emergence efficacy at 320 g/ha against STEME in % (Stellaria media [20]): 100% | Pre-emergence efficacy at 320 g/ha against VERPE in % (Veronica persica [21]): 100% | Pre-emergence efficacy at 80 g/ha against AMARE in % (Amaranthus retroflexus [22]): 100% | Pre-emergence efficacy at 80 g/ha against POLCO in % (Polygonum convolvulus [23]): 80% | Pre-emergence efficacy against SETVI (Setaria viridis [24]): 100% | Pre-emergence efficacy against VERPE (Veronica persica [25]): 90% | Pre-emergence efficacy against VIOTR (Viola tricolor): 90%
